In brackets after ≈: the same amount, converted by molar mass.
Assays:
[1] = Metabolic stability in human hepatocytes assessed as intrinsic clearance measured per 10^6 cells; assay type: functional, Hepatocyte
[2] = Solubility of the compound in FeSSIF at pH 5.8; assay type: physicochemical; details: simulated gi fluid
[3] = Lipophilicity, log D of the compound; assay type: physicochemical; details: octanol/water
Cathepsin D = Cathepsin D (Homo sapiens, UniProt P07339); test: Inhibition of human cathepsin D
Sequence of Cathepsin D (P07339 65-162 limits assumed): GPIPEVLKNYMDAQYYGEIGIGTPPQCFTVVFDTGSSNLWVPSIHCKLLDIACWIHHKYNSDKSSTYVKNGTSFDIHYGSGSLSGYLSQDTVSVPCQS
Sequence of Cathepsin D (P07339 169-412 limits assumed): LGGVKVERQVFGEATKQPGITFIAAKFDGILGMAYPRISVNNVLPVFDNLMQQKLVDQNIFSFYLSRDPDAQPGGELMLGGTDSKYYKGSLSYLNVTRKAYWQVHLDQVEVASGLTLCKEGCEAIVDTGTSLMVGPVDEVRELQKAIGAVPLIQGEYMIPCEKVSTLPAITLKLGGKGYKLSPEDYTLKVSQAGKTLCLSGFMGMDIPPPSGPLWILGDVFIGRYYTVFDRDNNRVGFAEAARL

Renin = target: T1, Renin (Homo sapiens, UniProt P00797); test: Inhibition of human renin
T1 sequence (P00797 whole entry): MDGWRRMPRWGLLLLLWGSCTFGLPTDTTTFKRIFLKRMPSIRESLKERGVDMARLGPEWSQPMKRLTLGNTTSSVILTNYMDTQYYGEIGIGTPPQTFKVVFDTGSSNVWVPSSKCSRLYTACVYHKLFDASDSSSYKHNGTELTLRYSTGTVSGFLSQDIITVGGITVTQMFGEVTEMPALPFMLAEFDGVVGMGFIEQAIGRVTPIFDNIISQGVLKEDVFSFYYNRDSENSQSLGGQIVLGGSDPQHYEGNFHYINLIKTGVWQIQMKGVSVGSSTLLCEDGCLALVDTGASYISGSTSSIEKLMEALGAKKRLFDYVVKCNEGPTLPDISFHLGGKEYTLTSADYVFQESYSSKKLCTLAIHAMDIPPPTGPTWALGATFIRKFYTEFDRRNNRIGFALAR

[4] = Inhibition of BACE (unknown origin); set-up: species or system Homo sapiens
Plasmepsin X = Plasmepsin X (Plasmodium falciparum (isolate 3D7), UniProt Q8IAS0); test: biochemical
Sequence of Plasmepsin X (Q8IAS0 whole entry): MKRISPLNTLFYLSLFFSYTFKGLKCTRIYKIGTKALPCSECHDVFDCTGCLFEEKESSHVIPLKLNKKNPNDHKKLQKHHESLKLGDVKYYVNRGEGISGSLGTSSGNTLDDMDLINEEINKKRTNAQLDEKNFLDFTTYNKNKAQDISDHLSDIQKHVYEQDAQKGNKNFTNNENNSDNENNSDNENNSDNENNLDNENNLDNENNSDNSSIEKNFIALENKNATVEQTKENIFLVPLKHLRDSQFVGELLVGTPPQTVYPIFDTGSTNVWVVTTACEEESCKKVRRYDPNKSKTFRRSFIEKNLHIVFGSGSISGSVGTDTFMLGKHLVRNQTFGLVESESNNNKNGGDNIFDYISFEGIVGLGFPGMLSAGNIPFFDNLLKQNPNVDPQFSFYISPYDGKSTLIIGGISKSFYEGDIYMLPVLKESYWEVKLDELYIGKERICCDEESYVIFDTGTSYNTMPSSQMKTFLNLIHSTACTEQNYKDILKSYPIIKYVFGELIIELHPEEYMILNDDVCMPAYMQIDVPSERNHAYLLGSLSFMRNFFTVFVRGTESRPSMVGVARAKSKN
Description: Inhibition of Plasmodium falciparum recombinant C-terminal TEV cleavable 8his-tagged PMX by FRET assay

[5] = Inhibition of Plasmodium vivax PMX by FRET assay
[6] = Inhibition of Plasmodium falciparum PMV by FRET assay
Plasmodium falciparum [7] = test: Antiplasmodial activity against sensitive Plasmodium falciparum NF54 infected in human red blood cells assessed as reduction in [3H]-hypoxanthine incorporation pretreated for 48 hrs followed by [3H]-hypoxanthine addition measured after 24 hrs by scintillation counting method; assay type: functional, organism-based
Plasmodium falciparum [8] = test: Antimalarial activity against Plasmodium falciparum K1 harbouring Pf-crt, Pf-mdrl,Pf-dhfr, Pf-dhps mutated loci assessed as inhibition of parasite growth pretreated for 48 hrs followed by [3H]-hypoxanthine addition measured after 24 hrs by scintillation counting method; assay type: functional, organism-based
Plasmodium falciparum [9] = test: Antimalarial activity against Plasmodium falciparum TM90C2b harbouring Pf-crt, Pf-mdrl,Pfd-hfr, Pf-cytbQ0 mutated loci assessed as inhibition of parasite growth pretreated for 48 hrs followed by [3H]-hypoxanthine addition measured after 24 hrs by scintillation counting method; assay type: functional, organism-based
Plasmodium falciparum [10] = test: Antimalarial activity against Plasmodium falciparum Dd2048 harbouring pfpi4k mutated loci assessed as inhibition of parasite growth pretreated for 48 hrs followed by [3H]-hypoxanthine addition measured after 24 hrs by scintillation counting method; assay type: functional, organism-based
Plasmodium falciparum [11] = test: Antimalarial activity against DDD107498 resistant Plasmodium falciparum Dd2 harbouring pfeef2 mutated loci assessed as inhibition of parasite growth pretreated for 48 hrs followed by [3H]-hypoxanthine addition measured after 24 hrs by scintillation counting method; assay type: functional, organism-based
Plasmodium falciparum [12] = test: Antimalarial activity against DSM265 resistant Plasmodium falciparum Dd2 harbouring pf-dhodh mutated loci assessed as inhibition of parasite growth pretreated for 48 hrs followed by [3H]-hypoxanthine addition measured after 24 hrs by scintillation counting method; assay type: functional, organism-based
Plasmodium falciparum [13] = test: Antimalarial activity against ELQ300 resistant Plasmodium falciparum Dd2 harbouring pfcytB mutated loci assessed as inhibition of parasite growth pretreated for 48 hrs followed by [3H]-hypoxanthine addition measured after 24 hrs by scintillation counting method; assay type: functional, organism-based
Plasmodium falciparum [14] = test: Antimalarial activity against KAF156 resistant Plasmodium falciparum Dd2 harbouring pf-carl mutated loci assessed as inhibition of parasite growth pretreated for 48 hrs followed by [3H]-hypoxanthine addition measured after 24 hrs by scintillation counting method; assay type: functional, organism-based
Homo sapiens = organism: Homo sapiens; test: Inhibition of BACE (unknown origin) at 10 uM relative to control

[H]/N=C1\N[C@](C)(c2cccc(Nc3cnc(C4CC4)nc3)c2Cl)CC(=O)N1[C@H]1CCO[C@@H](C)C1
intrinsic clearance [1]: 4 µL/min
solubility [2]: 1372 µM (≈ 643 µg/mL)
logD [3]: 2
IC50 (Cathepsin D): 215 nM
IC50 (Renin): 2360 nM
IC50 [4]: > 10000 nM
IC50 (Plasmepsin X): 9 nM

C[C@@]1(c2cccc(Nc3ccccc3)c2Cl)CC(=O)N(C2CCOCC2)C(=N)N1
IC50 [5]: 31 nM
IC50 [6]: 2700 nM
intrinsic clearance [1]: 28 µL/min
solubility [2]: 1057 µM (≈ 436 µg/mL)
logD [3]: 2.2
IC50 (Cathepsin D): 58 nM
IC50 (Plasmodium falciparum [7]): 107 nM
IC50 (Plasmodium falciparum [8]): 112 nM
IC50 (Plasmodium falciparum [9]): 62 nM
IC50 (Plasmodium falciparum [10]): 87 nM
IC50 (Plasmodium falciparum [11]): 82 nM
IC50 (Plasmodium falciparum [12]): 78 nM
IC50 (Plasmodium falciparum [13]): 96 nM
IC50 (Plasmodium falciparum [14]): 83 nM
IC50 (Plasmepsin X): 15 nM

C[C@@]1(c2cccc(Nc3ccc(C4CC4)nc3)c2Cl)CC(=O)N(C2CCOCC2)C(=N)N1
intrinsic clearance [1]: 3 µL/min
solubility [2]: 1161 µM (≈ 527 µg/mL)
logD [3]: 2.1
IC50 (Cathepsin D): 1190 nM
IC50 (Renin): 1070 nM
inhibition (Homo sapiens): 52%
IC50 (Plasmepsin X): 37 nM

C[C@@]1(c2cccc(NC(=O)c3ccccc3)c2Cl)CC(=O)N(C2CCOCC2)C(=N)N1
IC50 [6]: > 5000 nM
intrinsic clearance [1]: 4 µL/min
logD [3]: 1.2
IC50 (Cathepsin D): > 10000 nM
IC50 (Plasmepsin X): 32 nM

From ChEMBL document CHEMBL5108065 (J Med Chem, 2022)
